Read-outs that look alike come from different tables or passages of the source.

For 1 compound, koff and Kd results are on record in article PMC6132577, “Methyl group reorientation under ligand binding probed by pseudocontact shifts” (Journal of Biomolecular Nmr, 2018).

The target in assay [1] is T1, ntd-HSP90 mutant T149C/I187C tagged with CLaNP-5 (Homo sapiens, UniProt P07900, I187C/T149C).
T1 construct: Three double cysteine mutants of the ntd-HSP90 were designed on the surface of the protein; CLaNP-5 (chemical lanthanoid chelate with Lu3+ or Yb3+, attached to the two engineered Cys); made in house
Description: NMR methyl 13C-1H HSQC titration fitted with TITAN, 1:1 binding model. The following applies: mutant 149C/187C. The method, then: (§1) Three double cysteine mutants of the ntd-HSP90 were designed on the surface of the protein, S50C/D54C, A101C/N105C and T149C/I187C (Lescanne et al. [2017]). […] The protein was produced labelled with Leu-δ1-δ2/Val-γ1-γ2-[^13CH3] and purified and tagged with CLaNP5 according to a published protocol (Lescanne et al. [2017]). CLaNP-5 was synthesized as described before (Keizers et al. [2007], [2008]).
(§2) Ntd-HSP90 in 50 mM Tris-HCl and 50 mM NaCl buffer, pH 7.7, was titrated with 4-(2-Fluorophenyl)-2-pyrimidinamine, 1, (Fig. 1), a 189 Da known ligand of ntd-HSP90 that was kindly provided by AstraZeneca (Göteborg, Sweden). Titrations were performed with three ntd-HSP90 mutants, S50C/D54C, A101C/N105C and T149C/I187C tagged with Lu^3+-CLaNP-5 or Yb^3+-CLaNP-5. The concentrations of S50C/D54C, A101C/N105C T149C/I187C were 20, 103 and 65 µM, respectively, for both diamagnetic and paramagnetic forms of the protein. Concentrations (µM) of 1 for titrations with S50C/D54C, A101C/N105C and T149C/I187C were [0, 39, 59, 88, 132, 198, 296, 444, 667, 1000], [0, 20, 40, 121, 364, 1111] and [0, 40, 89, 200, 442, 665, 1008, 1897], respectively. The NMR sample volume was 595 µL for all samples, and dilution was neglected, because the biggest volume of ligand solution added was < 5 µL. ^13C-^1H HSQC (Palmer et al. [1991]; Kay et al. [1992]; Schleucher et al. [1994]) spectra were acquired at each titration point, on a Bruker Avance III 800 MHz spectrometer, equipped with a cryogenically cooled TXI-probe head, operating at 298 K. Spectra were processed with nmrpipe (Delaglio et al. [1995]) using the exponential EM apodization function for analysis with TITAN (Waudby et al. [2016]). A similar titration was performed with WT ntd-HSP90 observing the amide groups. Average CSP were calculated as (ΔH^2 + (ΔC/10)^2)^0.5 for methyl groups and (ΔH^2 + (ΔN/6)^2)^0.5 for amides. PCS were measured using ^1H and for calculations the geometrical average of the proton coordinates in methyl groups were used.
(§3) The dissociation constant KD, as well as the dissociation rate constant (kOFF) were calculated with TITAN software (Waudby et al. [2016]) using a 1:1 binding model (A + B ⇆ A − B). TITAN fits both the equilibrium constant (KD) and the dissociation rate constant (kOFF) on the basis of the CSP and line broadening. A global fit of the resonances of five methyl groups (Table S1) was performed and then one at the time was taken out and the fit repeated. The WT KD was calculated using a titration performed on the ^15N labelled protein, on the basis of four amide protons (Table S1). The ranges of values obtained in this way are reported in Table 1 and provide a more realistic error range than the fit error. […] For these two mutants, a 50 µM variation of the KD results in a change of the extrapolated CSP of 0.01 ppm at most, half the error used for the further calculations. For mutant 149C/187C a KD of 50 µM was used to extrapolate the CSP.

The target in assay [2] is T2, ntd-HSP90 mutant S50C/D54C tagged with CLaNP-5 (Homo sapiens, UniProt P07900, D54C/S50C).
T2 construct: Three double cysteine mutants of the ntd-HSP90 were designed on the surface of the protein; CLaNP-5 (chemical lanthanoid chelate with Lu3+ or Yb3+, attached to the two engineered Cys); made in house
Described as above. The following applies: mutant 50C/54C. On the procedure: as §1, §2, §3

Assay [3] deals with T3, ntd-HSP90 mutant A101C/N105C tagged with CLaNP-5 (Homo sapiens, UniProt P07900, A101C/N105C).
T3 construct: Three double cysteine mutants of the ntd-HSP90 were designed on the surface of the protein; CLaNP-5 (chemical lanthanoid chelate with Lu3+ or Yb3+, attached to the two engineered Cys); made in house
The assay is described as above. The following applies: mutant 101C/105C. On the procedure: as §1, §2, §3

A further assay deals with T4, WT ntd-HSP90 (Homo sapiens, UniProt P07900).
T4 construct: made in house
Description: NMR titration (15N-labelled protein, amide groups) fitted with TITAN, 1:1 binding model. The following applies: four amide protons, range of values from repeated global fits, 298 K, pH 7.7. The method, then: Ntd-HSP90 in 50 mM Tris-HCl and 50 mM NaCl buffer, pH 7.7, was titrated with 4-(2-Fluorophenyl)-2-pyrimidinamine, 1, (Fig. 1), a 189 Da known ligand of ntd-HSP90 that was kindly provided by AstraZeneca (Göteborg, Sweden). Titrations were performed with three ntd-HSP90 mutants, S50C/D54C, A101C/N105C and T149C/I187C tagged with Lu^3+-CLaNP-5 or Yb^3+-CLaNP-5. The concentrations of S50C/D54C, A101C/N105C T149C/I187C were 20, 103 and 65 µM, respectively, for both diamagnetic and paramagnetic forms of the protein. Concentrations (µM) of 1 for titrations with S50C/D54C, A101C/N105C and T149C/I187C were [0, 39, 59, 88, 132, 198, 296, 444, 667, 1000], [0, 20, 40, 121, 364, 1111] and [0, 40, 89, 200, 442, 665, 1008, 1897], respectively. […] Average CSP were calculated as (ΔH^2 + (ΔC/10)^2)^0.5 for methyl groups and (ΔH^2 + (ΔN/6)^2)^0.5 for amides. PCS were measured using ^1H and for calculations the geometrical average of the proton coordinates in methyl groups were used.
The dissociation constant KD, as well as the dissociation rate constant (kOFF) were calculated with TITAN software (Waudby et al. [2016]) using a 1:1 binding model (A + B ⇆ A − B). […] The WT KD was calculated using a titration performed on the ^15N labelled protein, on the basis of four amide protons (Table S1). […]

[4] abbreviates: CLaNP-5 tagged, five methyl groups, range of values from repeated global fits, 298 K, pH 7.7.
The mark [5] stands for this setting: CLaNP-5 tagged, five methyl groups, range of values from repeated global fits, 298 K, pH 7.7, read-out: KD.
[6] abbreviates: single value used to extrapolate CSP, read-out: KD used for the calculation of the 100% bound state CSP.

By koff is commonly meant the rate constant with which the complex falls apart. The low end stands for a long-lived complex, the high end for a short-lived complex. By Kd is commonly meant the equilibrium constant for the complex coming apart. Take `Nc1nccc(-c2ccccc2F)n1` [compound 1, 4-(2-Fluorophenyl)-2-pyrimidinamine]: the off-rate (koff) lay in the range of 1300 to 1900 s⁻¹ in assay [1] (setting [4]), 1500 to 2300 s⁻¹ in assay [2] (setting [4]), 1080 to 1300 s⁻¹ in assay [3] (setting [4]) and 1400 to 1800 s⁻¹ on WT ntd-HSP90. The dissociation constant (Kd) in assay [1] (setting [5]) was 41 to 45 µM; in assay [1] (single value used to extrapolate CSP, read-out: KD used to extrapolate the CSP), 50 µM; in assay [2] (setting [5]) it was 195 to 238 µM; in assay [2] (setting [6]), 200 µM; in assay [3] (setting [5]), 140 to 171 µM; in assay [3] (setting [6]) it was 150 µM. Also, the Kd at WT ntd-HSP90 was 160 to 220 µM.
